For 32 molecules, AC50 results are on record in patent US20250171437A1 (Agios Pharmaceuticals,Inc., priority 2022, published 2025).

The target of the assay is T1, human PAH with the R408W mutation (A375 R408W cells) (Homo sapiens, UniProt P00439, R408W).
T1 construct: expressed in transfected cells
T1 sequence (P00439 1-452 R408W): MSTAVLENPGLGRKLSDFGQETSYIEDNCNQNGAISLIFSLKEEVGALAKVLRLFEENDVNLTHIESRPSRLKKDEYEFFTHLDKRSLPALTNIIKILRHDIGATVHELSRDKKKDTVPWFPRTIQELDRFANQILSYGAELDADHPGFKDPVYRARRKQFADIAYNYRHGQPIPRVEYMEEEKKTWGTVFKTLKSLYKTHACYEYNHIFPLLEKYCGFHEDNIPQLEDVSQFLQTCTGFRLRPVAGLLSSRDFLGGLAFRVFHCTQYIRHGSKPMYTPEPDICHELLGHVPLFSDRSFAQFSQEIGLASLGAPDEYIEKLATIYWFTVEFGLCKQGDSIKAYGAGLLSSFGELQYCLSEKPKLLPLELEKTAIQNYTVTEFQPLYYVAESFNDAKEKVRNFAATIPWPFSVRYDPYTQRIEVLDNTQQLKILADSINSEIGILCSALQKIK
Description: Cell Based Phenylalanine Flux Assay. The conditions noted are these: 24 hrs with compound, then 20 μM sepiapterin and 800 μM 13C9,15N-Phenylalanine for 4 hours, 13C-Tyrosine by LC-MS, average where tested multiple times. The gist of the method:
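A375 cells stably expressing lentiviral human PAH R408W were treated with compounds (10-point 2-fold dilutions, 0.5% DMSO, duplicate) for 24 h at 37 °C. Then 20 μM sepiapterin and 800 μM 13C9,15N-Phe were added for 4 h; media 13C-Tyr was measured by LC-MS to give AC50.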

Where [1] appears, read: A375 cells expressing R408W PAH.

As a reminder, the AC50 is the concentration at which the activity in the assay is half-maximal. For the molecule `O=C(c1ccnn1-c1ccccn1)N1CCc2[nH]cnc2C1c1nc2ccccc2o1` (centres unmarked), under setting [1], the AC50 lay within 1 to 5 µM.
The same measure, in the same setting: next, `Cc1nc(C2(O)CC2)oc1C(=O)N1CCc2[nH]cnc2C1c1nc2cc(F)ccc2o1` (centres unmarked): at least 5 µM.
On to `Cc1cccc2oc([C@@H]3c4nc[nH]c4CCN3C(=O)c3ncnn3C)nc12` [Example 901, (S)-(1-methyl-1H-1,2,4-triazol-5-yl)(4-(4-methylbenzo[d]oxazol-2-yl)-6,7-dihydro-1H-imidazo[4,5-c]pyridin-5(4H)-yl)methanone], for which the AC50 (A375 R408W cells) was 0.5 to 1 µM.
With `O=C(c1cnn2cc(N3CCC(F)CC3)ccc12)N1CCc2[nH]cnc2[C@@H]1c1nc2c(F)cccc2o1` [Example 478, (R)-(4-(4-fluorobenzo[d]oxazol-2-yl)-6,7-dihydro-1H-imidazo[4,5-c]pyridin-5(4H)-yl)(6-(4-fluoropiperidin-1-yl)pyrazolo[1,5-a]pyridin-3-yl)methanone], the AC50 (A375 R408W cells) is at least 5 µM.
As to `Cn1ccc(-c2nc(C(F)F)c(C(=O)N3CCc4[nH]cnc4[C@H]3c3nc4cc(F)ccc4o3)o2)n1` [Example 411, (S)-(4-(difluoromethyl)-2-(1-methyl-1H-pyrazol-3-yl)oxazol-5-yl)(4-(5-fluorobenzo[d]oxazol-2-yl)-6,7-dihydro-1H-imidazo[4,5-c]pyridin-5(4H)-yl)methanone], the concentration at half-maximal activity (AC50) (A375 R408W cells) is at most 0.5 µM.
Take `O=C(c1cnn2cc(N3CCC4(CC3)CC4)ccc12)N1CCc2[nH]cnc2[C@@H]1c1nc2cccc(F)c2o1` [Example 396, (R)-(6-(6-azaspiro[2.5]octan-6-yl)pyrazolo[1,5-a]pyridin-3-yl)(4-(7-fluorobenzo[d]oxazol-2-yl)-6,7-dihydro-1H-imidazo[4,5-c]pyridin-5(4H)-yl)methanone]: the concentration at half-maximal activity (AC50) (A375 R408W cells) was 1 to 5 µM.
As to `Cn1ccc(-c2nnc(C(=O)N3CCc4[nH]cnc4[C@H]3c3nc4c(F)cccc4o3)o2)n1` [Example 379, (S)-(4-(4-fluorobenzo[d]oxazol-2-yl)-1,4,6,7-tetrahydro-5H-imidazo[4,5-c]pyridin-5-yl)(5-(1-methyl-1H-pyrazol-3-yl)-1,3,4-oxadiazol-2-yl)methanone], the half-maximal activity concentration (AC50) (A375 R408W cells) was at most 0.5 µM.
The same measure, in the same setting: next, `COc1cccc2oc([C@@H]3c4nc[nH]c4CCN3C(=O)c3ocnc3C(F)F)nc12` [Example 429, (S)-(4-(difluoromethyl)oxazol-5-yl)(4-(4-methoxybenzo[d]oxazol-2-yl)-6,7-dihydro-1H-imidazo[4,5-c]pyridin-5(4H)-yl)methanone]: at most 0.5 µM.
Consider `CC(C)(O)c1nc(Br)c(C(=O)N2CCc3[nH]cnc3C2c2nc3cc(F)ccc3o2)s1` (centres unmarked), for which the half-maximal activity concentration (AC50) under setting [1] was at least 5 µM.
As to `O=C(c1cnn2ccccc12)N1Cc2[nH]cnc2[C@H]1c1nc2ccccc2o1` [Example 929, (S)-(4-(benzo[d]oxazol-2-yl)-4,6-dihydropyrrolo[3,4-d]imidazol-5(1H)-yl)(pyrazolo[1,5-a]pyridin-3-yl)methanone], under “A375 R408W cells”, the AC50 was in the range of 1 to 5 µM.
Same read-out and setting: next, `Cn1nc(C(F)F)nc1C(=O)N1CCc2[nH]cnc2[C@@H]1c1nc2ccccc2o1` [Example 562, (R)-(4-(benzo[d]oxazol-2-yl)-6,7-dihydro-1H-imidazo[4,5-c]pyridin-5(4H)-yl)(3-(difluoromethyl)-1-methyl-1H-1,2,4-triazol-5-yl)methanone]: 1 to 5 µM.
Turning to `CC(C)(F)c1ncc(C(=O)N2CCc3[nH]cnc3[C@@H]2c2nc3cc(F)ccc3o2)o1` [Example 14, (R)-(4-(5-fluorobenzo[d]oxazol-2-yl)-6,7-dihydro-1H-imidazo[4,5-c]pyridin-5(4H)-yl)(2-(2-fluoropropan-2-yl)oxazol-5-yl)methanone], the AC50 (A375 R408W cells) lay within 1 to 5 µM.
On to `CN(C)Cc1ccc2c(C(=O)N3CCc4[nH]cnc4C3c3nc4cc(F)ccc4o3)cnn2c1` (centres unmarked), for which, under setting [1], the concentration at half-maximal activity (AC50) is at least 5 µM.
`O=C(c1ocnc1C(F)F)N1CCc2[nH]cnc2[C@H]1c1nc2c(F)ccc(F)c2o1` [Example 373, (S)-(4-(4,7-difluorobenzo[d]oxazol-2-yl)-6,7-dihydro-1H-imidazo[4,5-c]pyridin-5(4H)-yl)(4-(difluoromethyl)oxazol-5-yl)methanone]: the concentration at half-maximal activity (AC50) (A375 R408W cells) was at most 0.5 µM.
With `Cc1cccc2nc([C@@H]3c4nc[nH]c4CCN3C(=O)c3ccnn3C)oc12` [Example 747, (S)-(1-methyl-1H-pyrazol-5-yl)(4-(7-methylbenzo[d]oxazol-2-yl)-6,7-dihydro-1H-imidazo[4,5-c]pyridin-5(4H)-yl)methanone], the concentration at half-maximal activity (AC50) (A375 R408W cells) is at most 0.5 µM.
On the same count and under the same terms, next, `Cc1ccc(F)c2nc([C@@H]3c4nc[nH]c4CCN3C(=O)c3ocnc3C(F)F)oc12` [Example 743, (S)-(4-(difluoromethyl)oxazol-5-yl)(4-(4-fluoro-7-methylbenzo[d]oxazol-2-yl)-6,7-dihydro-1H-imidazo[4,5-c]pyridin-5(4H)-yl)methanone]: at most 0.5 µM.
`Cc1nc(N2CCC(F)CC2)oc1C(=O)N1CCc2[nH]cnc2C1c1nc2cc(F)ccc2o1` (centres unmarked): under setting [1], the AC50 was at least 5 µM.
For `O=C(c1ocnc1C(F)F)N1CCc2[nH]cnc2[C@H]1c1nc2cccc(Cl)c2o1` [Example 425, (S)-(4-(7-chlorobenzo[d]oxazol-2-yl)-6,7-dihydro-1H-imidazo[4,5-c]pyridin-5(4H)-yl)(4-(difluoromethyl)oxazol-5-yl)methanone], the AC50 (A375 R408W cells) was at most 0.5 µM.
Regarding `O=C(c1cnco1)N1CCc2[nH]cnc2C1c1nc2c(F)cccc2o1` (centres unmarked), the half-maximal activity concentration (AC50) under setting [1] fell in the range of 1 to 5 µM.
`CC(F)(F)c1ncoc1C(=O)N1CCc2[nH]cnc2[C@@H]1c1nc2ccc(F)cc2o1` [Example 650, (R)-(4-(1,1-difluoroethyl)oxazol-5-yl)(4-(6-fluorobenzo[d]oxazol-2-yl)-6,7-dihydro-1H-imidazo[4,5-c]pyridin-5(4H)-yl)methanone]: the AC50 (A375 R408W cells) lay within 0.5 to 1 µM.
Turning to `O=C([C@@H]1CC1(F)F)N1CCc2[nH]cnc2[C@@H]1c1nc2cc(F)ccc2o1` [Example 62, ((S)-2,2-difluorocyclopropyl)((R)-4-(5-fluorobenzo[d]oxazol-2-yl)-6,7-dihydro-1H-imidazo[4,5-c]pyridin-5(4H)-yl)methanone], the AC50 (A375 R408W cells) fell in the range of 1 to 5 µM.
With `O=C(c1cnn2cc(CN3CCC(F)(F)C3)ccc12)N1CCc2[nH]cnc2C1c1nc2cc(F)ccc2o1` (centres unmarked), the AC50 under setting [1] was at least 5 µM.
In the case of `Cc1nc([C@@H](C)O)oc1C(=O)N1CCc2[nH]cnc2[C@H]1c1nc2cc(F)ccc2o1` [Example 135, ((S)-4-(5-fluorobenzo[d]oxazol-2-yl)-6,7-dihydro-1H-imidazo[4,5-c]pyridin-5(4H)-yl)(2-((R)-1-hydroxyethyl)-4-methyloxazol-5-yl)methanone], the concentration at half-maximal activity (AC50) (A375 R408W cells) lay in the range of 1 to 5 µM.
With `O=C(CCc1ncco1)N1CCc2[nH]cnc2[C@@H]1c1nc2cccc(F)c2o1` [Example 388, (R)-1-(4-(7-fluorobenzo[d]oxazol-2-yl)-6,7-dihydro-1H-imidazo[4,5-c]pyridin-5(4H)-yl)-3-(oxazol-2-yl)propan-1-one], for the setting “A375 R408W cells”, the half-maximal activity concentration (AC50) is at least 5 µM.
Regarding `Cn1nc(C(F)(F)F)nc1C(=O)N1CCc2[nH]cnc2C1c1nc2ccc(F)cc2o1` (centres unmarked), under setting [1], the concentration at half-maximal activity (AC50) fell in the range of 1 to 5 µM.
Turning to `COc1ccc2c(C(=O)N3CCc4[nH]cnc4[C@@H]3c3nc4cc(F)ccc4o3)cnn2c1` [Example 74, (R)-(4-(5-fluorobenzo[d]oxazol-2-yl)-6,7-dihydro-1H-imidazo[4,5-c]pyridin-5(4H)-yl)(6-methoxypyrazolo[1,5-a]pyridin-3-yl)methanone], the concentration at half-maximal activity (AC50) (A375 R408W cells) is at least 5 µM.
On the same count and under the same terms, next, `O=C(c1nnc(-c2cnn(C(F)F)c2)o1)N1CCc2[nH]cnc2[C@H]1c1nc2c(F)ccc(F)c2o1` [Example 801, (S)-(4-(4,7-difluorobenzo[d]oxazol-2-yl)-6,7-dihydro-1H-imidazo[4,5-c]pyridin-5(4H)-yl)(5-(1-(difluoromethyl)-1H-pyrazol-4-yl)-1,3,4-oxadiazol-2-yl)methanone]: at most 0.5 µM; `CC(C)(O)c1nc(C(F)F)c(C(=O)N2CCc3[nH]cnc3[C@H]2c2nc3ccc(F)cc3o2)o1` [Example 187, (S)-(4-(difluoromethyl)-2-(2-hydroxypropan-2-yl)oxazol-5-yl)(4-(6-fluorobenzo[d]oxazol-2-yl)-6,7-dihydro-1H-imidazo[4,5-c]pyridin-5(4H)-yl)methanone]: at most 0.5 µM.
On to `O=C(c1cnn2cc(Cl)ccc12)N1CCc2[nH]cnc2C1c1nc2cc(F)ccc2o1` (centres unmarked), for which the AC50 under setting [1] lay within 1 to 5 µM.
For `O=C(c1ccnn1CC(F)F)N1CCc2[nH]cnc2[C@H]1c1nc2cccc(F)c2o1` [Example 847, (S)-(1-(2,2-difluoroethyl)-1H-pyrazol-5-yl)(4-(7-fluorobenzo[d]oxazol-2-yl)-6,7-dihydro-1H-imidazo[4,5-c]pyridin-5(4H)-yl)methanone], the half-maximal activity concentration (AC50) (A375 R408W cells) was at most 0.5 µM.
The same measure, in the same setting: next, `CC(C)(O)c1nc(C(F)F)c(C(=O)N2CCc3[nH]cnc3[C@H]2c2nc3cc(F)ccc3o2)o1` (single isomer, unassigned) [Example 107]: at most 0.5 µM; `O=C(c1cnc(-c2ccccn2)o1)N1CCc2[nH]cnc2[C@@H]1c1nc2cc(F)ccc2o1` [Example 12, (R)-(4-(5-fluorobenzo[d]oxazol-2-yl)-6,7-dihydro-1H-imidazo[4,5-c]pyridin-5(4H)-yl)(2-(pyridin-2-yl)oxazol-5-yl)methanone]: 1 to 5 µM.
